Key:
[1] = target: T1, mTORC2 (Mus musculus (Mouse), UniProt Q9JLN9); experiment: mTORC2 activation (p-AKT S473) in TSC2 CKO epilepsy animal model; assay type: in vivo; conditions: TSC2 CKO mice; rapamycin 3 mg/kg or Example 1-1K 10 mg/kg i.p.; 4 weeks
Method: (§1) Animal care was performed according to an animal protocol approved by the Animal Experiment Committee of Seoul National University. TSC2^GFAP1 CKO mice were generated as follows. TSC2^flox/flox mice were first crossed with the same GFAP-Cre mouse line. The resulting TSC2^flox/+; TSC2^flox/flox by crossing GFAP-Cre mice with other TSC2^flox/flox mice; GFAP-Cre mice were generated.
(§2) For western blot analysis, mouse cerebral neocortex and hippocampus were dissected and sonicated in cell lysis buffer (Cell Signaling, Beverly, Mass., USA). After centrifugation at 15,000 rpm at 4° C. for 1 hour. a supernatant was obtained and the protein concentration was measured by the Bradford method (Pierce, Rockford, Ill., USA). An equal amount of total protein extract was separated by SDS-PAGE and transferred to a nitrocellulose membrane. After incubation with anti-p-S6K (T389) (Cell Signaling, #9205), anti-S6K (Cell Signaling, #9202), anti-Actin (Santa Cruz Biotechnology, #sc-1616), anti-p-AKT (S473) (Cell signaling, #4060), anti-AKT (Cell signaling, #2920) anti-p62/SQSTM1 (Cell signaling, #39749) and anti-LC3A (Cell signaling, #4108) antibodies in 1% TTBBS buffer (10 mM Tris, 10% Tris (Tris-HCl, pH 7.5, 150 mM NaCl, 0.05% Tween 20), the membrane was reacted with a peroxidase-conjugated secondary antibody. Signals were detected using an improved chemiluminescent reagent (Pierce, Rockford, Ill., USA).

[2] = system: autophagy; experiment: Autophagy markers (LC3 II increase or p62 cleavage) in TSC2 CKO epilepsy animal model; assay type: in vivo, mouse; conditions: TSC2 CKO mice; rapamycin 3 mg/kg or Example 1-1K 10 mg/kg i.p.; 4 weeks
Method: as §1, §2

[3] = system: mTORC1; experiment: mTORC1 activation (p-S6K T389) in TSC2 CKO epilepsy animal model; assay type: in vivo, mouse; conditions: TSC2 CKO mice; rapamycin 3 mg/kg or Example 1-1K 10 mg/kg i.p.; 4 weeks; vs control
Method: as §1
For western blot analysis, mouse cerebral neocortex and hippocampus were dissected and sonicated in cell lysis buffer (Cell Signaling, Beverly, Mass., USA). After centrifugation at 15,000 rpm at 4° C. for 1 hour. a supernatant was obtained and the protein concentration was measured by the Bradford method (Pierce, Rockford, Ill., USA). An equal amount of total protein extract was separated by SDS-PAGE and transferred to a nitrocellulose membrane.

[4] = system: RagD; experiment: RagD GTP hydrolysis inhibitory activity (GTP-agarose bead pulldown assay) in SW620 cells; assay type: cell-based; conditions: 10 μM for 1 hour, leucine restimulation 15 min
Method: GTP-agarose bead pulldown assay was performed to analyze RagD bound to GTP.
After washing the cells with cold PBS, cells were obtained in GTP-binding buffer (20 mM Tris-HCl, pH 7.5, 5 mM MgCl2, 2 mM PMSF, 20 μg/ml leupeptin, 10 μg/ml aprotinin, 150 mM NaCl, 1% Triton X-100, 1× phosphatase inhibitor cocktail). The cells were sonicated for 15 seconds to lyse, and the cell lysate was centrifuged at 4° C. for 10 minutes and at 13000×g to obtain a supernatant. The obtained protein solution (contained in 500 μl of GTP-binding buffer) was treated with 100 μl of GPT-agarose bead (Sigma Aldrich, Cat no. G9768) and left at 4° C. for 30 minutes. Thereafter, the beads were washed with GTP-binding buffer, and the supernatant was recovered. The washed beads in the recovered supernatant were once again treated for 30 minutes. The beads were washed again, and the recovered supernatant was left overnight at 4° C. After washing 5 times with GTP-binding buffer to separate contaminants that may have been included, the GTP-binding protein was analyzed by performing immunoblot analysis using anti-RagD or ARF1 antibody. ARF1 was used as a negative control.

[5] = target: LRS and RagD (Homo sapiens (Human), UniProt Q9P2J5); experiment: Inhibition of the interaction of LRS and RagD (immunoprecipitation) in SW620 cells; assay type: cell-based; conditions: 10 uM for 1 hour, leucine restimulation, anti-LRS or anti-RagD precipitate
Method: Cells were lysed using a lysis buffer containing a protease inhibitor, and a primary antibody was added to the cell lysate for immunoprecipitation, followed by stirring at 4° C. for 2 hours and allowed to stand. A 50% protein agarose G-Sepharose slurry was added and left for an additional 4 hours. After washing three times with cold lysis buffer, the precipitate was dissolved in SDS sample buffer, separated by SDS-PAGE, and immunoblotted using anti-LRS or anti-RagD antibody.

[6] = system: autophagy; experiment: In vivo autophagy (LC3 II or p62 degradation) in brain of C57BL/6 mice; set-up: species or system mouse; conditions: 100 mg/kg intraperitoneal; 7-week-old C57BL/6 male mice
Method: (§3) The salt of the compound of the Example 1-1 was administered at a dose of 100 mg/kg (in 10% DMAC, 15% Tween 80, 75% 0.1M Na2HPO4, pH9.4), and rapamycin at a dose of 2 mg/kg (in 10% DMAC, 15% Tween 80, 75% saline).

[7] = system: mTORC1; experiment: mTORC1 activity inhibitory effect at 20 μM, phospho-p70 S6 Kinase Western blot in SW620 cells; conditions: leucine-free 1 h 30 min, then leucine 15 min, vs DMSO control
Method: In order to evaluate the inhibitory effect of the compounds according to the present invention on the activity of mTORC1, an experiment was performed in the following manner.

[8] = target: T1, mTORC2; experiment: In vivo mTORC2 activity, AKT phosphorylation in brain of C57BL/6 mice; conditions: 100 mg/kg intraperitoneal; 7-week-old C57BL/6 male mice
Method: as §3

[9] = system: mTORC1; experiment: In vivo mTORC1 inhibition, S6K phosphorylation in brain neocortex and hippocampus of C57BL/6 mice; set-up: species or system mouse
Method: as §3
On the other hand, the present inventor attempted to evaluate the mTOR. inhibitory activity by salt concentration of the compound of Example 1-1 based on the above results.

[10] = system: B6C3H/APP/PS1 mice; experiment: Amyloid plaque removal in Alzheimer's animal model, ThS staining; assay type: in vivo, mouse; conditions: 5, 10 or 20 mg/kg intraperitoneal once daily for 7 days, vs vehicle
Excerpt: In the experiment, 7 months old male B6C3H/APP/PS1 mice were purchased from Jackson Lab (Bar Harbor, Me., USA) and used. These mouse are all dual transgenic mice expressing chimeric mouse/human amyloid precursor protein and mutant human presenilin 1, both of these are about CNS neurons. Both mutations are associated with early onset Alzheimer's.
The prepared salt (1-4K) of the compound of Example 1-1 was intraperitoneally administered at 0, 5, 10 or 20 mpk (mg/kg) per mouse, once daily for 7 days. As the solvent, 10% DMAC, 15% Tween 80, and 75% 0.1M Na2HPO4 buffer were used.
For immunohistochemical analysis, mice were anesthetized with 2% Avertin (20 μg g^−1, intraperitoneally), perfused with 0.9% saline, and perfused with ice-cold 4% paraformaldehyde. Excised brains of B6C3H/APP/PS1 mice were fixed in 4% paraformaldehyde (pH 7.4) for 16 hours. The fixed brain samples were immersed in 30% sucrose for cryoprotection and sliced to a thickness of 35 μm using a Cryostat (Microm HM 525, Thermo Scientific, Waltham, Mass., USA). To visualize Aβ plaques, sliced brain sections were stained with thioflavin S (ThS) for 7 minutes. […]
Images were taken with a Leica DM2500 fluorescence microscope. Plaque numbers were calculated from a single brain image of each mouse using the ImageJ software program.
Aβ deposition in the brain of APP/PS1 mice can be detected at 6 months of age. […]

LRS and RagD, sequence (Q9P2J5 whole entry): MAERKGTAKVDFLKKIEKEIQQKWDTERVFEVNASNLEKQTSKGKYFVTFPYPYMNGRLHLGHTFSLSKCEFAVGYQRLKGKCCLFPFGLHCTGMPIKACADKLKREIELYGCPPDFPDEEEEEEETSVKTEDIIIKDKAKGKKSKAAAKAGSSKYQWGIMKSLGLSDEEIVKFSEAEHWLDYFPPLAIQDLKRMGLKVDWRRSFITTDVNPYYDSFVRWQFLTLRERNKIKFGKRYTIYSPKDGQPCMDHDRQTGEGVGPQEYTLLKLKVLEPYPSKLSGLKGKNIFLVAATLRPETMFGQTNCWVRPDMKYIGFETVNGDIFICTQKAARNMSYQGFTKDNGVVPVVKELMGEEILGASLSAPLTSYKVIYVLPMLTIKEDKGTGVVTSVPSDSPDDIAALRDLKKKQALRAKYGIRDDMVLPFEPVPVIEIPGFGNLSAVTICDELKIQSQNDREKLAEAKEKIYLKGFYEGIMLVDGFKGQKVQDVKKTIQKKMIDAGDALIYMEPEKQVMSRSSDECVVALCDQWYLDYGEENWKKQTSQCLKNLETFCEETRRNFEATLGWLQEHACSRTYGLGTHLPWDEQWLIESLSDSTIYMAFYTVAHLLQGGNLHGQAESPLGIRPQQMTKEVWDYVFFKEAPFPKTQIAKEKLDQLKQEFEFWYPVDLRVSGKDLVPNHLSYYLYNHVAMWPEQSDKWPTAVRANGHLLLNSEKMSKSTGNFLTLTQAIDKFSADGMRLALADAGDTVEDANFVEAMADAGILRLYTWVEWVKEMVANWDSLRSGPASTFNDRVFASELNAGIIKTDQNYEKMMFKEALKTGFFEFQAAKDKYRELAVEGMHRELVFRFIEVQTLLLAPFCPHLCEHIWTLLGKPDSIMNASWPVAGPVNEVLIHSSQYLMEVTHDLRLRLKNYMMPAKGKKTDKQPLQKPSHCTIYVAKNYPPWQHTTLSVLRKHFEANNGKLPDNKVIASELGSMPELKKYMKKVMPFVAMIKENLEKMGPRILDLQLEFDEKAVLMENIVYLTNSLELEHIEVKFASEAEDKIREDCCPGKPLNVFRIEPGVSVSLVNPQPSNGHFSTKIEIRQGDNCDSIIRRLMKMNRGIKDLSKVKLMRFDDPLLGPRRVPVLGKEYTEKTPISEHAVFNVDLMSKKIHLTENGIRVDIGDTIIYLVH

| SMILES | mTORC2 activation, p-AKT (S473) [1] | autophagy (LC3 II increase or p62 cleavage) [2] | mTORC1 activation, p-S6K (T389) in cerebral cortex and hippocampus [3] | GTP hydrolysis of RagD [4] | interaction between LRS and RagD [5] | mTORC1 inhibitory effect (%) [7] [%] | other results |
| --- | --- | --- | --- | --- | --- | --- | --- |
| CO[C@H]1C[C@@H]2CC[C@@H](C)[C@@](O)(O2)C(=O)C(=O)N2CCCC[C@H]2C(=O)O[C@H]([C@H](C)C[C@@H]2CC[C@@H](O)[C@H](OC)C2)CC(=O)[C@H](C)/C=C(\C)[C@@H](O)[C@@H](OC)C(=O)[C@H](C)C[C@H](C)/C=C/C=C/C=C/1C [rapamycin, reference compound] | not affected | induced | reduced |  |  |  |  |
| O=C1NC(=S)S/C1=C\c1cnn(-c2ccccc2)c1 [Example 1-1, (5Z)-5-[(1-phenylpyrazol-4-yl)methylene]-2-thioxo-thiazolidin-4-one] |  |  |  | inhibiting the GTP hydrolysis of RagD | directly inhibited |  |  |
| O=C1[N-]C(=S)S/C1=C\c1cnn(-c2ccccc2)c1.[K+] [Example 1-1K, Potassium Salt of (5Z)-5-[(1-phenylpyrazole-4-yl)methylene]-2-thioxo-thiazolidin-4-one] | not affected | induced | reduced | inhibiting the GTP hydrolysis of RagD | directly inhibited | ≥ 85 | autophagy action (degradation of LC3 II or p62) [6]: increased; phosphorylation degree of AKT (mTORC2 activity) [8]: not changed; phosphorylation of S6K in the brain, by dose ([9]; 0, 1, 2.5, 5, 10, 20 and 50 mg/kg intraperitoneal, C57BL/6 male mice): inhibited the phosphorylation of S6K in the brain of the animal in a concentration-dependent manner; phosphorylated S6K in brain neocortex and hippocampus ([9]; 100 mg/kg intraperitoneal, 7-week-old C57BL/6 male mice): not detected; amyloid plaque deposits (ThS staining) in the brain [10]: significantly reduced |
| C=CCN1C(=O)/C(=C/c2cnn(-c3ccccc3)c2)SC1=S [Example 1-5, (5Z)-3-allyl-5-[(1-phenylpyrazol-4-yl)methylene]-2-thioxo-thiazolidin-4-one] |  |  |  |  |  | 45.82 ± 3.59 |  |
| O=C1NC(=O)/C(=C/c2ccn(-c3ccccc3)n2)S1 [Example 1-58, (5Z)-5-[[1-phenylpyrazol-3-yl]methylene]thiazolidine-2,4-dione] |  |  |  |  |  | 59.51 ± 4.35 |  |
| O=C1NC(=O)/C(=C/c2cnn(-c3ccccc3F)c2)S1 [Example 1-40, (5Z)-5-[[1-(2-fluorophenyl)pyrazol-4-yl]methylene]thiazolidine-2,4-dione] |  |  |  |  |  | 41.03 ± 0.21 |  |

Reference: US11649231B2, “Compound as mTOR inhibitor and use thereof” (MEDICINAL BIOCONVERGENCE RESEARCH CENTER, priority 2018, dated 2023)
